Structures can show the parent of a compound that is named as a salt.
Assays:
h5-HT transporter = molecular target: T1, h5-HT transporter (Homo sapiens, UniProt P31645); assay: Radioligand binding experiment for 5-HT transporter ([3H]paroxetine); conditions: human platelet membranes, [3H]paroxetine 0.5 nM
T1 construct: Human platelet membranes (Oceanix Biosciences Corporation, Hanover, Md., USA) were thawed; tissue Oceanix Biosciences Corporation; host or cells: human platelet membranes
Protocol: (§1) The interaction of the compounds of Formula (I) with hα2-receptors and h5-HT-transporters was assessed in in vitro radioligand binding experiments. In general, a low concentration of a radioligand with a high binding affinity for a particular receptor or transporter is incubated with a sample of a tissue preparation enriched in a particular receptor or transporter or with a preparation of cells expressing cloned human receptors in a buffered medium. During the incubation, the radioligand binds to the receptor or transporter. When equilibrium of binding is reached, the receptor bound radioactivity is separated from the non-bound radioactivity, and the receptor- or transporter-bound activity is counted. The interaction of the test compounds with the receptor is assessed in competition binding experiments. Various concentrations of the test compound are added to the incubation mixture containing the receptor- or transporter preparation and the radioligand. The test compound in proportion to its binding affinity and its concentration inhibits binding of the radioligand. The radioligand used for hα2A, hα2B and hα2C receptor binding was [^3H]-raulwolscine and for the h5-HT transporter was [^3H]paroxetine.
Human platelet membranes (Oceanix Biosciences Corporation, Hanover, Md., USA) were thawed, diluted in buffer (Tris-HCl 50 mM, 120 mM NaCl and 5 mM KCl) and quickly (max 3 s) homogenised with an Ultraturrax homogenizer. In a total volume of 250 μL, 50-100 μg protein was incubated with [^3H]paroxetine (NET-869) (New England Nuclear, USA) (0.5 nM final concentration) with or without competitor for 60 min at 25° C. Incubation was stopped by rapid filtration of the incubation mixture over GF/B filters, pre-wetted with 0.1% polyethyleneamine, using a Filtermatel 96 harvester (Packard, Meriden, Conn.). Filters were rinsed extensively with ice-cold buffer and radioactivity on the filters was counted in a Topcount liquid scintillation counter (Packard, Meriden, Conn.). Data were expressed as cpm. Imipramine (at 1 μM final concentration) was used to determine the non-specific binding.
(§2) Data from assays in the presence of compound were calculated as a percentage of total binding measured in the absence of test compound. Inhibition curves, plotting percent of total binding versus the log value of the concentration of the test compound, were automatically generated, and sigmoidal inhibition curves were fitted using non-linear regression. The pIC50 values of test compounds were derived from individual curves.

hα2A receptor = molecular target: T2, hα2A receptor (Homo sapiens, UniProt P08913); assay: Radioligand binding experiment for α2A-adrenergic receptor ([3H]-raulwolscine); conditions: CHO cell membranes with human α2A receptor, [3H]raulwolscine 1 nM; read-out: pIC50 α2A (converted)
T2 construct: expressed in transfected cells; host or cells: CHO cells
T2 sequence (P08913 1-465): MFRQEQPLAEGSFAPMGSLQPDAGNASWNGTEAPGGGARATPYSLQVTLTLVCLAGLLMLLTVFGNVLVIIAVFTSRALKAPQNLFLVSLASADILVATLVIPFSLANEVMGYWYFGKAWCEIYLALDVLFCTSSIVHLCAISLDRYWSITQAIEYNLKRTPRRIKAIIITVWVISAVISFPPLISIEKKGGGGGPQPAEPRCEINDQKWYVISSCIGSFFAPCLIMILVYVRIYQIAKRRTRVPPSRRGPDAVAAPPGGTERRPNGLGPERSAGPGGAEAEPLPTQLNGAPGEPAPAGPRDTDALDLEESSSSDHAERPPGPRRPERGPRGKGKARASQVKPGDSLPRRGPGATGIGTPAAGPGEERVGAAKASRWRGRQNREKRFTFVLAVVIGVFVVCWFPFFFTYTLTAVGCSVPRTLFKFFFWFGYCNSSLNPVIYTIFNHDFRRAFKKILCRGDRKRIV
Protocol: as §1
(§3) CHO cells, stabile transfected with human adrenergic-α2A-, -α2B or α2C receptor cDNA, were cultured in Dulbecco's Modified Eagle's Medium (DMEM)/Nutrient mixture Ham's F12 (ratio 1:1)(Gibco, Gent-Belgium) supplemented with 10% heat inactivated fetal calf serum (Life Technologies, Merelbeke-Belgium) and antibiotics (100 IU/ml penicillin G, 100 μg/ml streptomycin sulphate, 110 μg/ml pyruvic acid and 100 μg/ml L-glutamine). One day before collection, cells were induced with 5 mM sodiumbutyrate. Upon 80-90% of confluence, cells were scraped in phosphate buffered saline without Ca^2+ and Mg^2+ and collected by centrifugation at 1500×g for 10 min. The cells were homogenised in Tris-HCl 50 mM using an Ultraturrax homogenizer and centrifuged for 10 min at 23,500×g. The pellet was washed once by resuspension and rehomogenization and the final pellet was resuspended in Tris-HCl, divided in 1 ml aliquots and stored at −70° C.
(§4) Membranes were thawed and re-homogenized in incubation buffer (glycylglycine 25 mM, pH 8.0). In a total volume of 500 μl, 2-10 μg protein was incubated with [^3H]raulwolscine (NET-722) (New England Nuclear, USA) (1 nM final concentration) with or without competitor for 60 min at 25° C. followed by rapid filtration over GF/B filter using a Filtermatel 96 harvester (Packard, Meriden, Conn.). Filters were rinsed extensively with ice-cold rinsing buffer (Tris-HCl 50 mM pH 7.4). Filter-bound radioactivity was determined by scintillation counting in a Topcount (Packard, Meriden, Conn.) and results were expressed as counts per minute (cpm). Non-specific binding was determined in the presence of 1 μM oxymetazoline for hα2A- and hα2B receptors and 1 μM spiroxatrine for hα2C receptors.
as §2

hα2C receptor = molecular target: T3, hα2C receptor (Homo sapiens, UniProt P18825); assay: Radioligand binding experiment for α2C-adrenergic receptor ([3H]-raulwolscine); conditions: CHO cell membranes with human α2C receptor, [3H]raulwolscine 1 nM; read-out: pIC50 α2C (converted)
T3 construct: expressed in transfected cells; host or cells: CHO cells
T3 sequence (P18825 1-462): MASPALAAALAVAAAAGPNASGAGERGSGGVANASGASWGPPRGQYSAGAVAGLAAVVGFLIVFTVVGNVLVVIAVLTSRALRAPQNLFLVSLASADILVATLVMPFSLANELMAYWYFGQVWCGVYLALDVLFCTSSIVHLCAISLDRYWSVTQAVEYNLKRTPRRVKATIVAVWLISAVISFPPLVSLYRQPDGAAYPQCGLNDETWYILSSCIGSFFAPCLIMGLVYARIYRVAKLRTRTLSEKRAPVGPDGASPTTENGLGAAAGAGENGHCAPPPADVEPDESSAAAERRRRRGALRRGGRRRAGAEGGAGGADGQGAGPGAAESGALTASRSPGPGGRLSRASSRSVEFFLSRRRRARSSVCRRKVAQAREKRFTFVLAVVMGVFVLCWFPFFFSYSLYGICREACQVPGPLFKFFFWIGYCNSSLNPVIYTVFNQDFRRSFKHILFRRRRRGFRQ
Protocol: as §1, §3, §4, §2

T1 sequence (P31645 whole entry): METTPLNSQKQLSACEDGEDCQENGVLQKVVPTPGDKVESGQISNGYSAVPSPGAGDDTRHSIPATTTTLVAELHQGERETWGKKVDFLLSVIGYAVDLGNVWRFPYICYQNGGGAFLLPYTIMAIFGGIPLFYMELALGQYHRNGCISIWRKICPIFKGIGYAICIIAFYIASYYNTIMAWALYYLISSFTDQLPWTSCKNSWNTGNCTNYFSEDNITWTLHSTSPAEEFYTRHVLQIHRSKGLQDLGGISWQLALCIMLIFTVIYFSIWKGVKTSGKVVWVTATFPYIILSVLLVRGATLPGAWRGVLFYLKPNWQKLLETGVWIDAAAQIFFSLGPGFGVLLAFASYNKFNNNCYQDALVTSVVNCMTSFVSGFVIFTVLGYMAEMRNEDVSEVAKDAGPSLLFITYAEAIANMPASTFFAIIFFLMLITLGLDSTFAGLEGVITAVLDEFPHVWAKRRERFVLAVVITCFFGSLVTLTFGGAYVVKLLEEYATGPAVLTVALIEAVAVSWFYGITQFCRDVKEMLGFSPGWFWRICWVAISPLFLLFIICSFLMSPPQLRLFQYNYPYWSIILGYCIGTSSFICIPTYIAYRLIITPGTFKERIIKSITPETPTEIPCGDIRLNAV

melting point [°C]	IC50 (h5-HT transporter) [nM]	IC50 (hα2A receptor) [nM]	IC50 (hα2C receptor) [nM]	Structure (SMILES)
218 to 226				CC(=Cc1ccc(F)cc1)CN1CCN(CC2ON=C3c4ccc(N(C)CCN)cc4OCC32)CC1 (stereo not shown) (as salt: HCl) [Compound 19]
	5.01	39.8	5.01	CC(=Cc1ccc(F)cc1)CN1CCN(CC2ON=C3c4ccc(N(C)CCNC(C)C(C)C)cc4OCC32)CC1 (stereo not shown) [Compound 110]
	12.6	25.1	6.31	CC(=Cc1ccc(F)cc1)CN1CCN(CC2ON=C3c4ccc(N(C)CCNC5CCC5)cc4OCC32)CC1 (stereo not shown) [Compound 111]
	100	251	126	CC(=Cc1ccc(F)cc1)CN1CCN(CC2ON=C3c4ccc(N(C)CCOC(=O)CC(C)(C)C)cc4OCC32)CC1 (stereo not shown) [Compound 117]
	3.16	12.6	3.16	CC(=Cc1ccc(F)cc1)CN1CCN(CC2ON=C3c4ccc(N(C)CCNCC5CC5)cc4OCC32)CC1 (stereo not shown) [Compound 118]
	3.16	10	3.16	CC(=Cc1ccc(F)cc1)CN1CCN(CC2ON=C3c4ccc(N(C)CCNCC(C)O)cc4OCC32)CC1 (stereo not shown) [Compound 119]
	2.51	39.8	6.31	CCC(C)(C)NCCN(C)c1ccc2c(c1)OCC1C2=NOC1CN1CCN(CC(C)=Cc2ccc(F)cc2)CC1 (stereo not shown) [Compound 120]
	158	501	100	C=CCN(C)CCN(C)c1ccc2c(c1)OCC1C2=NOC1CN1CCN(CC(C)=Cc2ccc(F)cc2)CC1 (stereo not shown) [Compound 121]
	6.31	39.8	7.94	CC(=Cc1ccc(F)cc1)CN1CCN(CC2ON=C3c4ccc(N(C)CCN(C)C(C)(C)C)cc4OCC32)CC1 (stereo not shown) [Compound 122]
	7.94	10	3.16	CC(=Cc1ccc(F)cc1)CN1CCN(CC2ON=C3c4ccc(N(C)CCN5CCC5)cc4OCC32)CC1 (stereo not shown) [Compound 123]
	200	316	158	CCC(C)NC(=O)OCCN(C)c1ccc2c(c1)OCC1C2=NOC1CN1CCN(CC(C)=Cc2ccc(F)cc2)CC1 (stereo not shown) [Compound 127]
	126	126	25.1	CC(=Cc1ccc(F)cc1)CN1CCN(CC2ON=C3c4ccc(NCC5CC5)cc4OCC32)CC1 (stereo not shown) [Compound 130]
	63.1	25.1	31.6	CC(=Cc1ccc(F)cc1)CN1CCN(CC2ON=C3c4ccc(NCC(C)O)cc4OCC32)CC1 (stereo not shown) [Compound 132]
	126	126	126	CCCCCNc1ccc2c(c1)OCC1C2=NOC1CN1CCN(CC(C)=Cc2ccc(F)cc2)CC1 (stereo not shown) [Compound 133]
	126	63.1	126	CC(=Cc1ccc(F)cc1)CN1CCN(CC2ON=C3c4ccc(NC(C)CO)cc4OCC32)CC1 (stereo not shown) [Compound 134]
	20	6.31	10	CC(=Cc1ccc(F)cc1)CN1CCN(CC2ON=C3c4ccc(NC(N)=O)cc4OCC32)CC1 (stereo not shown) [Compound 137]
	50.1	31.6	31.6	CC(=Cc1ccc(F)cc1)CN1CCN(CC2ON=C3c4ccc(NC(=O)C5CC5)cc4OCC32)CC1 (stereo not shown) [Compound 138]

Further lines, the compound ahead of its results:

Structure (SMILES)	melting point [°C]	IC50 (h5-HT transporter) [nM]	IC50 (hα2A receptor) [nM]	IC50 (hα2C receptor) [nM]
CCCC(C)C(=O)Nc1cc2c(cc1OC)C1=NOC(CN3CCN(CC(C)=Cc4ccc(F)cc4)CC3)C1CO2 (stereo not shown) [Compound 113]		63.1	79.4	39.8
CCC(C)C(=O)Nc1cc2c(cc1OC)C1=NOC(CN3CCN(CC(C)=Cc4ccc(F)cc4)CC3)C1CO2 (stereo not shown) [Compound 114]		31.6	25.1	20
COc1cc2c(cc1NC(=O)C1CCC1)OCC1C2=NOC1CN1CCN(CC(C)=Cc2ccc(F)cc2)CC1 (stereo not shown) [Compound 115]		25.1	39.8	39.8
COc1cc2c(cc1NCC(C)C)OCC1C2=NOC1CN1CCN(CC(C)=Cc2ccc(F)cc2)CC1 (stereo not shown) [Compound 116]		79.4	200	158
COc1cc2c(cc1NC(=O)Nc1ccccc1)OCC1C2=NOC1CN1CCN(CC(C)=Cc2ccc(F)cc2)CC1 (stereo not shown) [Compound 124]		50.1	316	158
CC(=Cc1ccc(F)cc1)CN1CCN(CC2ON=C3c4ccc(N5CCCCCC5)cc4OCC32)CC1 (stereo not shown) [Compound 125]		158	200	158
COc1cc2c(cc1NCC1CC1C)OCC1C2=NOC1CN1CCN(CC(C)=Cc2ccc(F)cc2)CC1 (stereo not shown) [Compound 126]		126	63.1	126
COc1cc2c(cc1NCC1(C)CC1)OCC1C2=NOC1CN1CCN(CC(C)=Cc2ccc(F)cc2)CC1 (stereo not shown) [Compound 128]		158	200	200
CC(=Cc1ccc(F)cc1)CN1CCN(CC2ON=C3c4ccc(NC(C)C)cc4OCC32)CC1 (stereo not shown) [Compound 129]		158	63.1	31.6
CCC(C)Nc1ccc2c(c1)OCC1C2=NOC1CN1CCN(CC(C)=Cc2ccc(F)cc2)CC1 (stereo not shown) [Compound 131]		63.1	158	50.1
CC(=Cc1ccc(F)cc1)CN1CCN(CC2ON=C3c4ccc(N5CC=CCC5)cc4OCC32)CC1 (stereo not shown) [Compound 135]		79.4	39.8	25.1
CC(=Cc1ccc(F)cc1)CN1CCN(CC2ON=C3c4ccc(N5CCNCC5)cc4OCC32)CC1 (stereo not shown) [Compound 136]		7.94	39.8	5.01
CC(=Cc1ccc(F)cc1)CN1CCN(CC2ON=C3c4ccc(N5CCC(C)C5=O)cc4OCC32)CC1 (stereo not shown) [Compound 139]		126	15.8	7.94

Source: patent US7265103B2, “Substituted amino isoxazoline derivatives and their use as anti-depressants” (Janssen Pharmaceutica NV., priority 2002, dated 2007)
